# Target: T1, Glucan Synthase of Candida albicans (Candida albicans, UniProt O13428)
# T1 construct: endogenous in cells
# Assay: Inhibition of the Glucan Synthase of Candida albicans (14C-UDP glucose incorporation, membrane proteins)
# Assay type: biochemical
# Settings: Candida albicans membranes, 25° C., 1 hour, radioactivity counted
# Description: A—Inhibition of the Glucan Synthase of Candida albicans.
# Candida albicans membranes were purified according to the process described by Tang et al Antimicrob. Agents Chemother 35, 99–103, 1991. 22.5 μg of membrane proteins are incubated in a mixture of 2 Mm of 14C-UDP glucose (specific activity=0.34 mCi./mmol, 50 μg of α-amylase, 1 Mm of dithiotreitol (DTT), 1 Mm EDTA, 100 Mm NaF, 7 μM of GTP-γ-S, 1M of sucrose and 50 Mm of Tris-HCL (pH 7.8) in a volume of 100 μl. The medium is incubated at 25° C. for 1 hour and the reaction is terminated by adding TCA at a final concentration of 5%. The reaction mixture is transferred onto a pre-humidified glass fibre filter. The filter is washed, dried and its radioactivity is counted. Mulundocandine is used as a positive control. Control of the vehicle is carried out with the same quantity of 1% DMSO. […] The enzyme is prepared according to the process of Beaulieu et al.(Antimicrob. Agents Chemother 38, 937–944, 1994. The protocol used is identical to the protocol described above for the enzyme of Candida albicans except that dithiotreitol is not used in the reaction mixture.
# T1 sequence (O13428 1-1897): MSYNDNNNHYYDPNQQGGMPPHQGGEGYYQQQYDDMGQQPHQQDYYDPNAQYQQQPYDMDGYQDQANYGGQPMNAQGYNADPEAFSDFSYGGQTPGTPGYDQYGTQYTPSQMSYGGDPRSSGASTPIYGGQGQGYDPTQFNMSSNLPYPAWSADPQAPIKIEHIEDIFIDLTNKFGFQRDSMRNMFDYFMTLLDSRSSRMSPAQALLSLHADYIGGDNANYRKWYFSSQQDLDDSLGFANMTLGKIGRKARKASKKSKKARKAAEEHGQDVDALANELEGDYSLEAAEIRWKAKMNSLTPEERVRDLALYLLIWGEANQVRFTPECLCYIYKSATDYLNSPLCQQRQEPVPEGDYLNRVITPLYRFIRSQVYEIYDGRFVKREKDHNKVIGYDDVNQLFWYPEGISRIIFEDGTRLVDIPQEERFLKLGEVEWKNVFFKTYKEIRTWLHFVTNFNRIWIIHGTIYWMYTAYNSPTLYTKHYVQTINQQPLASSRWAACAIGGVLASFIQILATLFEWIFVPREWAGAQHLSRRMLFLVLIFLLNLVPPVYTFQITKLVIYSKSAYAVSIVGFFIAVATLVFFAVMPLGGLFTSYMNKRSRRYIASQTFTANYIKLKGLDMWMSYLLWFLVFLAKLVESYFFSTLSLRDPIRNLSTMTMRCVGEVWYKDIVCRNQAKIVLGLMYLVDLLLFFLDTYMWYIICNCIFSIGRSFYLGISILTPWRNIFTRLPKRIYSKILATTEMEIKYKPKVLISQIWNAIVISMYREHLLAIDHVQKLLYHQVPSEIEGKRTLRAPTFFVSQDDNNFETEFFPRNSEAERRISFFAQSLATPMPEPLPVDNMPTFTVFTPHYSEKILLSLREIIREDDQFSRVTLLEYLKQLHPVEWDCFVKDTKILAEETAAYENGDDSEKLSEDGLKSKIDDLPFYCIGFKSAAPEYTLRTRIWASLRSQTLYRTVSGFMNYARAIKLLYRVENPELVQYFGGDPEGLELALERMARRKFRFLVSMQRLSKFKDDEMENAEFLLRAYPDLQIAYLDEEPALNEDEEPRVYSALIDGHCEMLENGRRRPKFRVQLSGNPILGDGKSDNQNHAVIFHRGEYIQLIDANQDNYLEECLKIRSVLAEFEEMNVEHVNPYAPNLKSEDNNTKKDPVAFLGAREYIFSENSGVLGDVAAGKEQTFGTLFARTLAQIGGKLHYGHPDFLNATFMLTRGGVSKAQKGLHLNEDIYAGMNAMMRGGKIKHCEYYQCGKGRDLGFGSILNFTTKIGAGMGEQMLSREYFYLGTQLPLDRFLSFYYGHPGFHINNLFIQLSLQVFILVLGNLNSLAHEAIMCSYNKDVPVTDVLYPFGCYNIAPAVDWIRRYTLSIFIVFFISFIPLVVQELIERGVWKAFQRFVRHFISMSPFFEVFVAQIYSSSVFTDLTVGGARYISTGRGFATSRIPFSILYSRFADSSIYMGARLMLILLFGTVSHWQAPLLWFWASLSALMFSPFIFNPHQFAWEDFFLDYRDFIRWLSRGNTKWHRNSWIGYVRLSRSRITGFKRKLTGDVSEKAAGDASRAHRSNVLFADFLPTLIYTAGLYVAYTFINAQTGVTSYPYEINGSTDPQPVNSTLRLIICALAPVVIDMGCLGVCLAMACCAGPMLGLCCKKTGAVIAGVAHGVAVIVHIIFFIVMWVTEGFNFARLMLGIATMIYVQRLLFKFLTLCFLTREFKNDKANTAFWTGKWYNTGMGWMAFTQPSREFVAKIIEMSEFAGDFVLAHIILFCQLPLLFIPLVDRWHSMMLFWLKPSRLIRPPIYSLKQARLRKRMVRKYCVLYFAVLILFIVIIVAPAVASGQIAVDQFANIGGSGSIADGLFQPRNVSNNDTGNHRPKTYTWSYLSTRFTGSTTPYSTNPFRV
# T1 sequence (O42825 1-195 partner limits assumed): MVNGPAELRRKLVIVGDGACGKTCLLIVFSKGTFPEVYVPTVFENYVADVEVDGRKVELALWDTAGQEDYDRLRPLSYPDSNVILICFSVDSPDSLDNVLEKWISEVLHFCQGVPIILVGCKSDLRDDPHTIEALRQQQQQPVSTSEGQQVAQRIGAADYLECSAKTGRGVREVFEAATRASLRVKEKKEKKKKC
substance,measurement,value
"Trans 1-[4-[(2-aminocyclo-hexyl)-amino]-N2-[[4″-(pentyloxy) [1,1′:4′,1″-terphenyl]-4-yl]-carbonyl]-L-ornithine]-4-[4-(4-hydroxyphenyl)-L-threonine]-5-L-serine-echinocandine B trifluoroacetate (isomer A) [Example 3 isomer A]",Inhibition of the glucan synthase of Candida albicans,good activity
